Publication PMC11062922 (Nature Chemical Biology, 2023)
Like-named read-outs stand apart in the source and are kept apart here.

Legend:
GSK3B = biological target: T1, GSK3B (Homo sapiens, UniProt P49841); assay: Kinobeads two-dose competition binding: GSK3B; conditions: for CATDS: target GSK3B
T1 construct: endogenous in cells

GAK = biological target: T2, GAK (Homo sapiens, UniProt O14976); assay: Kinobeads two-dose competition binding: GAK; conditions: for CATDS: target GAK
T2 construct: endogenous in cells
T2 sequence (O14976 1-1311): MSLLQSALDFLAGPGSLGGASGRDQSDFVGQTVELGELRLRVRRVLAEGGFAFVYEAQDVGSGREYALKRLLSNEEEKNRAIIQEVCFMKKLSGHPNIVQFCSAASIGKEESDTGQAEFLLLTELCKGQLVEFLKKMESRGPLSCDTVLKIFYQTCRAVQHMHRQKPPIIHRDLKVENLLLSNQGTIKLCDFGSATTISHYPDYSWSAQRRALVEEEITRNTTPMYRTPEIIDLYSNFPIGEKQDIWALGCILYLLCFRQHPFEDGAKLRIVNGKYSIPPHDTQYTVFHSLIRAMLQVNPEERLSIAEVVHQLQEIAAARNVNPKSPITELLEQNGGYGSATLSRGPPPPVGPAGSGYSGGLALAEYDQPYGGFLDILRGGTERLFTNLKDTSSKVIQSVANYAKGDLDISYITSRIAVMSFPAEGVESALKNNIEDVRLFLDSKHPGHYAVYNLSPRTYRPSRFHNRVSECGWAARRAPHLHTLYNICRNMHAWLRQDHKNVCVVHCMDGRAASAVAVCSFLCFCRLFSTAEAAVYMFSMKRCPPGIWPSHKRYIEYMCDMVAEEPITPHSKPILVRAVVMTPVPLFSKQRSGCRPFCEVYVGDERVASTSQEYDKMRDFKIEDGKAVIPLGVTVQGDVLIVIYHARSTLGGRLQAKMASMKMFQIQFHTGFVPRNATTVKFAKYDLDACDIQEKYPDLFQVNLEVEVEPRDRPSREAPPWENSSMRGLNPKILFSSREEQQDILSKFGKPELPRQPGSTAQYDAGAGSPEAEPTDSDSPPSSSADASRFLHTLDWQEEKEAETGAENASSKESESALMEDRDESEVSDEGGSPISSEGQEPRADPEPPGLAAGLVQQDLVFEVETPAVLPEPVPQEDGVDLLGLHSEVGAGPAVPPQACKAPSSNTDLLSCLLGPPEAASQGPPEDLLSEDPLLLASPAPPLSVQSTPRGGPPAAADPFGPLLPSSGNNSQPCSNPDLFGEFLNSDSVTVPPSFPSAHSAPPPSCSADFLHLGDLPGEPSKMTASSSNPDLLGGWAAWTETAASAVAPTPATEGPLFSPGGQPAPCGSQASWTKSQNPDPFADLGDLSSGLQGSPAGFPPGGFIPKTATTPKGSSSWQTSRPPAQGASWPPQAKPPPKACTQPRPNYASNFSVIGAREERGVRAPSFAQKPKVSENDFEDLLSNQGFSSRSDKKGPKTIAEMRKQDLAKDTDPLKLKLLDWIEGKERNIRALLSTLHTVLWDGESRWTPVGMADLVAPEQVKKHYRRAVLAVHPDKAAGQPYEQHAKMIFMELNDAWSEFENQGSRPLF
Text: (§1) Briefly, Kinobeads comprise seven broad-spectrum small molecule kinase inhibitors immobilized on Sepharose beads. […]. Compounds of interest are set to compete for target protein binding with Kinobeads in the lysate and the amount of a given protein bound to Kinobeads in the presence of a compound can be quantified relative to a dimethylsulfoxide (DMSO) vehicle control by label-free mass spectrometry. This assay measures the physical interaction of a compound with thousands of endogenous proteins in parallel and, when systematically increasing the concentration of competitor, enables the calculation of an apparent interaction constant ( Kdapp ) for each compound and protein.
(§2) Kinobeads pulldown experiments were performed as described previously[13],[14],[17] with minor modification. […] The protein concentration was adjusted to 5 mg ml^−1. Kinase inhibitors were spiked into 0.5 ml of cell lysate at final concentrations of 100 and 1,000 nM (or DMSO, 0.3, 1, 3, 10, 30, 100, 300 and 1,000 nM for full dose experiments). […] Lysates were incubated for 45 min at 4 °C. Subsequently, lysates were incubated with Kinobeads ε (17.5 µl of settled beads) for 30 min at 4 °C. To assess the degree of protein depletion from the lysates by Kinobeads, the flow through of the DMSO control was recovered for a pulldown of pulldown experiment where the lysate was incubated a second time with fresh Kinobeads. Beads were washed in three steps with buffer containing 0.4%, 0.2% and no IGEPAL. Bound proteins were reduced with 50 mM DTT in 8 M Urea, 40 mM Tris-HCl pH 7.4 for 30 min at room temperature. After alkylation with 55 mM chloroacetamide, the urea concentration was reduced to 1–2 M and proteins were digested with trypsin. Acidified peptides were desalted and concentrated using SepPak tC18 µEluation plates (Waters). Samples were frozen, dried by vacuum centrifugation and stored at −20 °C.
(§3) Each kinase inhibitor was processed together with all DMSO controls of the same plate. Additionally, each search was supplemented with five high quality DMSO controls for consistent peptide identification and protein grouping. The resultant file (proteinGroups.txt) was used for subsequent filtering, normalization, data visualization and target annotation that was automatically performed by a data processing pipeline built in house that used R (including the ‘drc’ and ‘heatmap’ packages). First, reverse hits, potential contaminants and not quantified proteins in the DMSO control samples were discarded. Protein raw and label-free quantification intensities were normalized to the median DMSO control intensity to obtain relative residual binding intensities for each protein group at every inhibitor concentration and standard deviations of the DMSO control intensity were calculated. IC50 values were estimated based on the following equation IC50=I×100−inhibition/inhibition where [I] is the inhibitor concentration that was used for IC50 calculation and ‘inhibition’ the relative residual binding intensity. […]. Estimated Kdapp values were then calculated by multiplying the estimated IC50 values with a protein-dependent correction factor that was limited to a maximum value of one. The correction factor accounts for the depletion of a target protein from the lysate by Kinobeads. The depletion can be measured by the ratio of the amount of protein captured in two consecutive pulldowns of the same DMSO control lysate. In this study, correction factors were determined in separate experiments using the same lysate mixture and the same bead batch. Correction factors were set to the median of all correction factors. Targets of kinase inhibitors were annotated using the previously published random forest classifier. A training data set was annotated manually. […]

AAK1 = biological target: T3, AAK1 (Homo sapiens, UniProt Q2M2I8); assay: Kinobeads two-dose competition binding: AAK1;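 note: kinobeads competition pulldown from cell lysate, compound preincubated 45 min at 4 °C, bead-bound protein measured by label-free mass spectrometry against DMSO vehicle control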
T3 construct: to maximize the representation of endogenous proteins; endogenous in cells

MAP3K1 = biological target: T4, MAP3K1 (Homo sapiens, UniProt Q13233); assay: Kinobeads two-dose competition binding: MAP3K1; conditions: for CATDS: target MAP3K1
T4 construct: endogenous in cells
Text: as §1, §2, §3

[1] = sheet CATDS matrix 2, Gene Name AAK1

T4 sequence (Q13233 whole entry): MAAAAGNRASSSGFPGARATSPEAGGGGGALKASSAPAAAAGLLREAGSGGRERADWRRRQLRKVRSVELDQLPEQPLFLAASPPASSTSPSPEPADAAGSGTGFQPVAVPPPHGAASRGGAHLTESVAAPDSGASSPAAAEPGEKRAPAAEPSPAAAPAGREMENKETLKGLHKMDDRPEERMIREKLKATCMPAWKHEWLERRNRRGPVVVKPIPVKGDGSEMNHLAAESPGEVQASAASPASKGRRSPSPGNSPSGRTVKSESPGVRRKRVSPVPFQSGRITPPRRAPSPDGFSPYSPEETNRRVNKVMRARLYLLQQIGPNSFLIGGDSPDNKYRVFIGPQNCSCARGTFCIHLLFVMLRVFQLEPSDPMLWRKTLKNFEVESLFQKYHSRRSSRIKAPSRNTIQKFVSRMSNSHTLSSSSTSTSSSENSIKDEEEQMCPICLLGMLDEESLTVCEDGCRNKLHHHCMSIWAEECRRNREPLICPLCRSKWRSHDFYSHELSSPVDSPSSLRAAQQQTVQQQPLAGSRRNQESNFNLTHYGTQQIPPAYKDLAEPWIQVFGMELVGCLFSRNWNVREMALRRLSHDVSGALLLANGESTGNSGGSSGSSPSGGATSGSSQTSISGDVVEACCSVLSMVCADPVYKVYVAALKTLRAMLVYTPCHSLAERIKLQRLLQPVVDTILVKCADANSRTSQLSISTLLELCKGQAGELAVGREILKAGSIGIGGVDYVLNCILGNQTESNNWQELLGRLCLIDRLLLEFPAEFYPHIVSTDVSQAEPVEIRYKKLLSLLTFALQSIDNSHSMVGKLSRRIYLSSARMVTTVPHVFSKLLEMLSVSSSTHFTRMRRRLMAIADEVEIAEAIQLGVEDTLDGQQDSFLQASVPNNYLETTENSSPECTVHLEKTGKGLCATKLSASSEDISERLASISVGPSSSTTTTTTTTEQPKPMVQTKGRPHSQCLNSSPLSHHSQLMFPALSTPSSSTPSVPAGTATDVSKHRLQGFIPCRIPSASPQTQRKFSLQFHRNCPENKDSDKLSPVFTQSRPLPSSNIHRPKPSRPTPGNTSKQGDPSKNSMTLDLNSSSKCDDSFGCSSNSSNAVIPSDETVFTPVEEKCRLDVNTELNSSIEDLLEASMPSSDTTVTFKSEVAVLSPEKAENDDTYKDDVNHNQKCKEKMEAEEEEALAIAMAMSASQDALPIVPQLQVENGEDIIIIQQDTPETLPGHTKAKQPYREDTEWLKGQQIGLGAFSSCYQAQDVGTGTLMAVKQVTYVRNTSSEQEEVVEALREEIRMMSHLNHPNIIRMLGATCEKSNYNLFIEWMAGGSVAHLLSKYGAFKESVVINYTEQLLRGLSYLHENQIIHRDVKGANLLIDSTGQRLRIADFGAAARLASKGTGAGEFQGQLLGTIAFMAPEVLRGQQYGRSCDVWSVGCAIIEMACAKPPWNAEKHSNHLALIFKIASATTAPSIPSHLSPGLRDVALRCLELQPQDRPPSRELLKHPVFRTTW
T1 sequence (P49841 whole entry): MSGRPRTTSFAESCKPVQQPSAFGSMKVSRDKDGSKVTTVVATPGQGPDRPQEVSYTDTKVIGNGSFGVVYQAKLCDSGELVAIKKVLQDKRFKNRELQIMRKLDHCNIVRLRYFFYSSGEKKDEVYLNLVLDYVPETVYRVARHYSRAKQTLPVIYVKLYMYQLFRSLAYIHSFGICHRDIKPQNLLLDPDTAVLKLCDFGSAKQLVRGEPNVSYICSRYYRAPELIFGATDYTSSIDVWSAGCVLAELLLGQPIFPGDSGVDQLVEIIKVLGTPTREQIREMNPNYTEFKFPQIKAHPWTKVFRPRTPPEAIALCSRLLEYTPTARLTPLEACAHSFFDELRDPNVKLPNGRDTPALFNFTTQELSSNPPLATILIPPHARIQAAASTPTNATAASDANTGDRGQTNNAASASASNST
T3 sequence (Q2M2I8 whole entry): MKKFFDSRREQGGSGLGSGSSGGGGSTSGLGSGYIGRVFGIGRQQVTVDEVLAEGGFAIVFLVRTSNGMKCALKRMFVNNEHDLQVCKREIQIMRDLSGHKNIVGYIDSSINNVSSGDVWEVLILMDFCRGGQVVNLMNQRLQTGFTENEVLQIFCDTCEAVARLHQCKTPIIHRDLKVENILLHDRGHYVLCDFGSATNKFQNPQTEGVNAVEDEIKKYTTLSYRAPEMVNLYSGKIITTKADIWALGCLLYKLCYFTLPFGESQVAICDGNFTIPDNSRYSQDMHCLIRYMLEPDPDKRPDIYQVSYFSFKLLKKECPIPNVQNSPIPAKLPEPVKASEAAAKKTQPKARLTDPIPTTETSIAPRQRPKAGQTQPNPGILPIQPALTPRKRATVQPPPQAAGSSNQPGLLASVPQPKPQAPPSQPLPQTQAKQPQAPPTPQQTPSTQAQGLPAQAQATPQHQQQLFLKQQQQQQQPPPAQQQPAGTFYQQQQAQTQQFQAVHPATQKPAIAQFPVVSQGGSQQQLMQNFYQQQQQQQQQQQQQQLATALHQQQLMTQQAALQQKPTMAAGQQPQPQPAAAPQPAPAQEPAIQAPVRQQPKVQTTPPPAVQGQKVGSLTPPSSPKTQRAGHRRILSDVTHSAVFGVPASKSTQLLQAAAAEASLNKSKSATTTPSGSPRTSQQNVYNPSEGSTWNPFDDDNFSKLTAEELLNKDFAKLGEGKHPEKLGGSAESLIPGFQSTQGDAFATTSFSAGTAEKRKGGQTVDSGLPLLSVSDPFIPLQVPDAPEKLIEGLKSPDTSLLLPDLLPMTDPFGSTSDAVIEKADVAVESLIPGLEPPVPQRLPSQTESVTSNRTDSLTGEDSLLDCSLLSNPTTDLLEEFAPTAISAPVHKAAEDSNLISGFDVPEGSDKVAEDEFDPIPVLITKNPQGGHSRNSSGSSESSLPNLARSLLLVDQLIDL

| SMILES | CATDS (GSK3B) | CATDS (GAK) | CATDS (AAK1; [1]) | CATDS (AAK1; target AAK1) | CATDS (MAP3K1) | other results |
| --- | --- | --- | --- | --- | --- | --- |
| CCc1cc2c(cc1N1CCC(N3CCOCC3)CC1)C(C)(C)c1[nH]c3cc(C#N)ccc3c1C2=O [Alectinib] | 0 | 0.6004 | 0 | 0 | 0 |  |
| CCN1CCN(Cc2ccc(Nc3ncc(F)c(-c4cc(F)c5nc(C)n(C(C)C)c5c4)n3)nc2)CC1 [Abemaciclib] |  | 0 | 0.04695 | 0.04695 | 0 |  |
| Nc1ncnc2[nH]c(-c3ccccc3)nc12 [AH5015_KCGS] | 0.07826 | 0.09213 | 0 | 0 | 0 |  |
| N#CC1(c2ccc(NC(=O)c3cccnc3NCc3ccncc3)cc2)CCCC1 [Apatinib] | 0 | 0 | 0 | 0 | 0 |  |
| CC(C)N1CC(=O)N(C)c2cnc(Nc3cccc(S(=O)(=O)CCN4CCOCC4)c3)nc21 [BI00009348] |  |  | 0.07467 |  |  | potency estimated from few doses (GSK3B; Kinobeads two-dose, Drugmatrix - all 2, read-out: apparent Kd GSK3B): 783 nM; potency estimated from few doses (AAK1; sheet "Kinobeads Drugmatrix - all", unit inferred, same values below 1000 recur in sheet "nanomolar", read-out: Kinobeads Drugmatrix - all: apparent Kd, AAK1): 662 nM; potency estimated from few doses (MAP3K1; Kinobeads two-dose, Drugmatrix - all 2, read-out: apparent Kd MAP3K1): > 1000 nM |
| C#Cc1cccc(Nc2ncnc3cc(OC)c(OC4CCN(C)CC4)cc23)c1 [BI00007366] |  |  | 0 |  |  | potency estimated from few doses (GAK; Kinobeads two-dose, Drugmatrix - all 2, read-out: apparent Kd GAK): 634 nM |
| C[C@]12O[C@H](C[C@]1(O)CO)n1c3ccccc3c3c4c(c5c6ccccc6n2c5c31)CNC4=O [Lestaurtinib] |  |  |  |  |  | potency estimated from few doses (GSK3B; read-out: Lestaurtinib Drugmatrix value, Gene Name GSK3B): 295 nM; potency estimated from few doses (GAK; read-out: Lestaurtinib Drugmatrix value, Gene Name GAK): 577 nM |
| CN(C)C/C=C/C(=O)Nc1cc2c(Nc3ccc(F)c(Cl)c3)ncnc2cc1O[C@H]1CCOC1 [Afatinib] | 0 | 0 |  |  | 0 |  |
